{
  "source": "ChEMBL document CHEMBL4340572",
  "about": "“Gentiopicroside isolated from Gentiana scabra Bge. inhibits adipogenesis in 3T3-L1 cells and reduces body weight in diet-induced obese mice” (Bioorg Med Chem Lett, 2019)",
  "key": {"Mus musculus [1]": {"system": "Mus musculus", "test": "Antiobesity activity in HFD-induced obese C57BL/6N mouse model assessed as decrease in body weight at 50 mg/kg, po administered once daily for 12 weeks and measured every week for 12 weeks", "type": "functional, organism-based"}, "3T3-L1 [2]": {"system": "3T3-L1", "test": "Downregulation of LPL mRNA expression in mouse 3T3L1 cells up to 10 uM incubated for 8 days followed by compound wash out measured by RT-PCR method", "type": "functional, cell-based"}, "Mus musculus [3]": {"system": "Mus musculus", "test": "Antiobesity activity in HFD-induced obese C57BL/6N mouse model assessed as decrease in visceral fat mass at 50 mg/kg, po administered once daily for 12 weeks", "type": "functional, organism-based"}, "3T3-L1 [4]": {"system": "3T3-L1", "test": "Cytotoxicity against mouse 3T3L1 cells assessed as reduction in cell viability up to 10 uM", "type": "cell-based"}, "3T3-L1 [5]": {"system": "3T3-L1", "test": "Downregulation of DGAT2 mRNA expression in mouse 3T3L1 cells up to 10 uM incubated for 8 days followed by compound wash out measured by RT-PCR method", "type": "functional, cell-based"}, "3T3-L1 [6]": {"system": "3T3-L1", "test": "Downregulation of SREBP-1c mRNA expression in mouse 3T3L1 cells up to 10 uM incubated for 8 days followed by compound wash out measured by RT-PCR method", "type": "functional, cell-based"}, "3T3-L1 [7]": {"system": "3T3-L1", "test": "Downregulation of SCD1 mRNA expression in mouse 3T3L1 cells up to 10 uM incubated for 8 days followed by compound wash out measured by RT-PCR method", "type": "functional, cell-based"}, "3T3-L1 [8]": {"system": "3T3-L1", "test": "Downregulation of PPARgamma mRNA expression in mouse 3T3L1 cells up to 10 uM incubated for 8 days followed by compound wash out measured by RT-PCR method", "type": "functional, cell-based"}, "3T3-L1 [9]": {"system": "3T3-L1", "test": "Downregulation of C/EBPalpha mRNA expression in mouse 3T3L1 cells up to 10 uM incubated for 8 days followed by compound wash out measured by RT-PCR method", "type": "functional, cell-based"}, "3T3-L1 [10]": {"system": "3T3-L1", "test": "Antiinflammatory activity in mouse 3T3L1 cells assessed as reduction in IL-6 mRNA expression up to 10 uM incubated for 8 days followed by compound wash out measured by RT-PCR method", "type": "functional, cell-based"}, "3T3-L1 [11]": {"system": "3T3-L1", "test": "Anti-adipogenic activity in mouse 3T3L1 cells grown in differentiation media assessed as decrease in lipid accumulation incubated for 8 days by Oil Red O staining based method", "type": "functional, cell-based"}, "3T3-L1 [12]": {"system": "3T3-L1", "test": "Antiinflammatory activity in mouse 3T3L1 cells assessed as reduction in NFkappaB1 mRNA expression level up to 10 uM incubated for 8 days followed by compound wash out measured by RT-PCR method", "type": "functional, cell-based"}, "3T3-L1 [13]": {"system": "3T3-L1", "test": "Downregulation of FABP4 mRNA expression in mouse 3T3L1 cells up to 10 uM incubated for 8 days followed by compound wash out measured by RT-PCR method", "type": "functional, cell-based"}, "3T3-L1 [14]": {"system": "3T3-L1", "test": "Antiinflammatory activity in mouse 3T3L1 cells assessed as reduction in TNFalpha mRNA expression up to 10 uM incubated for 8 days followed by compound wash out measured by RT-PCR method", "type": "functional, cell-based"}, "Mus musculus [15]": {"system": "Mus musculus", "test": "Antiobesity activity in HFD-induced obese C57BL/6N mouse model assessed as decrease in epididymal fat mass level at 50 mg/kg, po administered once daily for 12 weeks", "type": "functional, organism-based"}, "3T3-L1 [16]": {"system": "3T3-L1", "test": "Anti-adipogenic activity in mouse 3T3L1 cells grown in differentiation media assessed as decrease in lipid accumulation up to 10 uM incubated for 8 days by Oil Red O staining based method", "type": "functional"}, "3T3-L1 [17]": {"system": "3T3-L1", "test": "Downregulation of FAS mRNA expression in mouse 3T3L1 cells up to 10 uM incubated for 8 days followed by compound wash out measured by RT-PCR method", "type": "functional, cell-based"}, "Mus musculus [18]": {"system": "Mus musculus", "test": "Antiobesity activity in HFD-induced obese C57BL/6N mouse model assessed as reduction in epididymal WAT adipocyte size at 50 mg/kg, po administered once daily for 12 weeks by H and E staining based microscopic method", "type": "functional, organism-based"}, "3T3-L1 [19]": {"system": "3T3-L1", "test": "Inhibition of cell differentiation in mouse 3T3L1 cells assessed as reduction in pre-adipocyte differentiation into matured adipocytes at 5 uM incubated for 8 days followed by compound wash out measured by oil red O staining based method relative to control", "type": "functional", "conditions": "3T3-L1, 192 h"}},
  "note": "The source made the active and inactive calls. The calls are words filed in the database; no cut-off is given here.",
  "data": [
    {"smiles": "C=C[C@@H]1C2=CCOC(=O)C2=CO[C@H]1O[C@@H]1O[C@H](CO)[C@@H](O)[C@H](O)[C@H]1O", "note": "[GENTIOPICROSIDE]", "values": [
      {"measurement": "Activity", "setting": "Mus musculus [1]", "result": "Active"},
      {"measurement": "Activity", "setting": "3T3-L1 [2]", "result": "Active"},
      {"measurement": "Activity", "setting": "Mus musculus [3]", "result": "Active"},
      {"measurement": "Activity", "setting": "3T3-L1 [4]", "result": "Non-Toxic"},
      {"measurement": "Activity", "setting": "3T3-L1 [5]", "result": "Active"},
      {"measurement": "Activity", "setting": "3T3-L1 [6]", "result": "Active"},
      {"measurement": "Activity", "setting": "3T3-L1 [7]", "result": "Active"},
      {"measurement": "Activity", "setting": "3T3-L1 [8]", "result": "Active"},
      {"measurement": "Activity", "setting": "3T3-L1 [9]", "result": "Active"},
      {"measurement": "Activity", "setting": "3T3-L1 [10]", "result": "Active"},
      {"measurement": "Activity", "setting": "3T3-L1 [11]", "result": "Dose-dependent effect"},
      {"measurement": "Activity", "setting": "3T3-L1 [12]", "result": "Active"},
      {"measurement": "Activity", "setting": "3T3-L1 [13]", "result": "Active"},
      {"measurement": "Activity", "setting": "3T3-L1 [14]", "result": "Active"},
      {"measurement": "Activity", "setting": "Mus musculus [15]", "result": "Active"},
      {"measurement": "inhibition (INH)", "setting": "3T3-L1 [16]", "result": "<=64%"},
      {"measurement": "Activity", "setting": "3T3-L1 [17]", "result": "Active"},
      {"measurement": "Activity", "setting": "Mus musculus [18]", "result": "Active"},
      {"measurement": "inhibition at 5 µM", "setting": "3T3-L1 [19]", "result": "≤ 72", "unit": "%"}
    ]}
  ]
}
